Measured values published in PubChem BioAssay (NCI).
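Compound exposure: 48 hours, 5 concentrations, 96-well plates. TGI denotes the concentration required for complete inhibition of growth.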

Assays:
Assay in all cases: NCI tumour cell line growth inhibition, 48 h
KM12 colon = test system: KM12 colon
OVCAR-5 ovarian = test system: OVCAR-5 ovarian
HCC-2998 colon = test system: HCC-2998 colon
HOP-62 NSCLC = test system: HOP-62 NSCLC
A498 renal = test system: A498 renal
786-0 renal = test system: 786-0 renal
MCF7 breast = test system: MCF7 breast
RPMI-8226 leukemia = test system: RPMI-8226 leukemia
A549 NSCLC = test system: A549 NSCLC
CCRF-CEM leukemia = test system: CCRF-CEM leukemia
MOLT-4 leukemia = test system: MOLT-4 leukemia
SK-MEL-28 melanoma = test system: SK-MEL-28 melanoma
TK-10 renal = test system: TK-10 renal
ACHN renal = test system: ACHN renal
SK-OV-3 ovarian = test system: SK-OV-3 ovarian
U251 CNS = test system: U251 CNS
HOP-92 NSCLC = test system: HOP-92 NSCLC
HS 578T breast = test system: HS 578T breast
SF-295 CNS = test system: SF-295 CNS
OVCAR-3 ovarian = test system: OVCAR-3 ovarian
BT-549 breast = test system: BT-549 breast
MDA-N = test system: MDA-N
UACC-257 melanoma = test system: UACC-257 melanoma
CAKI-1 renal = test system: CAKI-1 renal
MDA-MB-231 breast = test system: MDA-MB-231 breast
OVCAR-8 ovarian = test system: OVCAR-8 ovarian
PC-3 prostate = test system: PC-3 prostate
SN12C renal = test system: SN12C renal
MALME-3M melanoma = test system: MALME-3M melanoma
SK-MEL-5 melanoma = test system: SK-MEL-5 melanoma
NCI-H522 lung = test system: NCI-H522 lung
IGROV1 ovarian = test system: IGROV1 ovarian
COLO 205 colon = test system: COLO 205 colon
HCT-116 colon = test system: HCT-116 colon
OVCAR-4 ovarian = test system: OVCAR-4 ovarian
UO-31 renal = test system: UO-31 renal
SF-268 CNS = test system: SF-268 CNS
UACC-62 melanoma = test system: UACC-62 melanoma
K-562 leukemia = test system: K-562 leukemia
MDA-MB-435 = test system: MDA-MB-435
HCT-15 colon = test system: HCT-15 colon
SR leukemia = test system: SR leukemia
NCI-H226 lung = test system: NCI-H226 lung
NCI-H23 lung = test system: NCI-H23 lung
DU-145 prostate = test system: DU-145 prostate
SK-MEL-2 melanoma = test system: SK-MEL-2 melanoma
T-47D breast = test system: T-47D breast
RXF 393 renal = test system: RXF 393 renal
NCI-H460 lung = test system: NCI-H460 lung
SF-539 CNS = test system: SF-539 CNS
M14 melanoma = test system: M14 melanoma
HT29 colon = test system: HT29 colon
SW-620 colon = test system: SW-620 colon
NCI/ADR-RES ovarian = test system: NCI/ADR-RES ovarian
SNB-75 CNS = test system: SNB-75 CNS
HL-60(TB) leukemia = test system: HL-60(TB) leukemia
LOX IMVI melanoma = test system: LOX IMVI melanoma
EKVX NSCLC = test system: EKVX NSCLC
SNB-19 CNS = test system: SNB-19 CNS

Measured: TGI

CC(=O)N1N=C(c2ccc3ccccc3c2O)CC1c1ccc(N(C)C)cc1 (configuration not stated)
not listed: HL-60(TB) leukemia | LOX IMVI melanoma | EKVX NSCLC | SNB-19 CNS
> 100 µM: all other assays above

CC(C)CC1NC(=O)CCC(NC(=O)C(Cc2ccc(O)cc2)NC(=O)OCc2ccccc2)C(=O)NC(Cc2ccccc2)C(=O)NC(Cc2ccccc2)NC1=O (configuration not stated)
not listed: A498 renal | NCI-H522 lung
> 100 µM: all other assays above
